As usually defined, the IC50 is the concentration at which inhibition is half-maximal.

Bounds are passed on as bounds.

This is an account of results in ChEMBL document CHEMBL3875196, “Novel pyrazolo[1,5-a]pyridines with improved aqueous solubility as p110α-selective PI3 kinase inhibitors” (Bioorg Med Chem Lett, 2017).

A short description of experiment [1]: Inhibition of recombinant mouse p110alpha/N-terminal His-tagged human p85alpha expressed in baculovirus infected Sf21 cells using L-alpha-phosphatidylinositol as substrate after 1 hr in presence of [gamma33]-ATP by thin layer chromatographic analysis.
Experiment [2] can be described thus: Antiproliferative activity against wild type p110alpha expressing human NZB5 cells after 5 days by [3H]-thymidine incorporation assay. The format is functional, cell-based. Background: Dividing cells build labelled thymidine or BrdU into new DNA.
Experiment [3] can be described thus: Antiproliferative activity against wild type p110alpha expressing human NZOV9 cells after 5 days by [3H]-thymidine incorporation assay. Format: functional, cell-based.
The target in experiment [4] is T1, Phosphatidylinositol 4,5-bisphosphate 3-kinase catalytic subunit delta isoform (Homo sapiens, UniProt O00329).
T1 sequence (O00329 whole entry): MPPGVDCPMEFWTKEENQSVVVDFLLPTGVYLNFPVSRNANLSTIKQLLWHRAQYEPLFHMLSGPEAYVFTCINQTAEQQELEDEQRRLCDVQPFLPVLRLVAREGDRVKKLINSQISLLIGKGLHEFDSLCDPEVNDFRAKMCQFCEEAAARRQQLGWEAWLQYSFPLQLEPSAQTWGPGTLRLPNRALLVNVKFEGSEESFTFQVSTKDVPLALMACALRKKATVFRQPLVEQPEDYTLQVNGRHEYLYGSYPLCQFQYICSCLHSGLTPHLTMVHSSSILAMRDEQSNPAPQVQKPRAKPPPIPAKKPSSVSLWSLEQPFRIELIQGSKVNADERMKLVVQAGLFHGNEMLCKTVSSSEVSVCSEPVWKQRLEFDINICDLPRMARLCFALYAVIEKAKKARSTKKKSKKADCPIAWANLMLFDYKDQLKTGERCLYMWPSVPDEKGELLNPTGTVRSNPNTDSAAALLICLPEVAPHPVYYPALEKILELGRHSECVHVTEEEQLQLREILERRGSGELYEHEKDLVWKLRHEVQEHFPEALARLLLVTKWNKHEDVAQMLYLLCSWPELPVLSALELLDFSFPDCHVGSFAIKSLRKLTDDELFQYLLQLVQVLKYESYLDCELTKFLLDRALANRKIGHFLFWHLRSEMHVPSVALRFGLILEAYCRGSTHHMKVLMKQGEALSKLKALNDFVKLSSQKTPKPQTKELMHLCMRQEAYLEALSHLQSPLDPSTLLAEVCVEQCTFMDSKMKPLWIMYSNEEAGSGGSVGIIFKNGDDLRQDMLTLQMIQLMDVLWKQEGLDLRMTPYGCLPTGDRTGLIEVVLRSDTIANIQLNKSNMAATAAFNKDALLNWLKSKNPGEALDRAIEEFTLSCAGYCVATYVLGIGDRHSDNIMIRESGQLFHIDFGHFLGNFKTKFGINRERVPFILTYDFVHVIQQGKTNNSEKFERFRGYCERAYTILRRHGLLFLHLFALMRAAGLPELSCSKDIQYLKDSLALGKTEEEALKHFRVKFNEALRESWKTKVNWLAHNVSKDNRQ
The experiment can be described thus: Inhibition of p110delta (unknown origin) using L-alpha phosphatidylinositol as substrate after 1 hr in presence of [gamma33]-ATP by thin layer chromatographic analysis.

For another experiment, the target named is PI3K p110 beta/p85 alpha (Homo sapiens, UniProt P42338). The experiment can be described thus: Inhibition of recombinant human p110beta/N-terminal His-tagged human p85alpha expressed in baculovirus infected sf cells using L-alpha-phosphatidylinositol as substrate after 1 hr in presence of [gamma33]-ATP by thin layer chromatographic analysis.
Chain of PI3K p110 beta/p85 alpha (P27986 whole entry): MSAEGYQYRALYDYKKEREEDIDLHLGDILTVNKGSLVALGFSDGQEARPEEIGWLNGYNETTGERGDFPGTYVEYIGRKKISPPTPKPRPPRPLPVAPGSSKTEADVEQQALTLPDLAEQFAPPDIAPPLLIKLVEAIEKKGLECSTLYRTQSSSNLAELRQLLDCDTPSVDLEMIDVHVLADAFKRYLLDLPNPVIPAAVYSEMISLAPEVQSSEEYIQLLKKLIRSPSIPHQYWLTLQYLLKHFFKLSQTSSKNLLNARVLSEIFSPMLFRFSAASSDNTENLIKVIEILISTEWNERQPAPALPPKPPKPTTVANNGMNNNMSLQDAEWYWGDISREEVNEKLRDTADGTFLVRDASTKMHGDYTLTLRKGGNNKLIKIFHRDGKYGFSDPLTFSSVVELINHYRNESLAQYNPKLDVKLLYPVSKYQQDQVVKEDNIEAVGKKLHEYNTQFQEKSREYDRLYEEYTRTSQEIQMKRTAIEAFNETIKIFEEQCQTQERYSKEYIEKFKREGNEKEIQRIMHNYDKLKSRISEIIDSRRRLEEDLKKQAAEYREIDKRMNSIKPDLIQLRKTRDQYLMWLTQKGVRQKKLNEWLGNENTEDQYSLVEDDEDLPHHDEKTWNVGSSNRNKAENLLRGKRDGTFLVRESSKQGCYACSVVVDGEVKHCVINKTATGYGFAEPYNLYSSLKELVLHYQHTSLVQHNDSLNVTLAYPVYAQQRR
Chain of PI3K p110 beta/p85 alpha (P42338 whole entry): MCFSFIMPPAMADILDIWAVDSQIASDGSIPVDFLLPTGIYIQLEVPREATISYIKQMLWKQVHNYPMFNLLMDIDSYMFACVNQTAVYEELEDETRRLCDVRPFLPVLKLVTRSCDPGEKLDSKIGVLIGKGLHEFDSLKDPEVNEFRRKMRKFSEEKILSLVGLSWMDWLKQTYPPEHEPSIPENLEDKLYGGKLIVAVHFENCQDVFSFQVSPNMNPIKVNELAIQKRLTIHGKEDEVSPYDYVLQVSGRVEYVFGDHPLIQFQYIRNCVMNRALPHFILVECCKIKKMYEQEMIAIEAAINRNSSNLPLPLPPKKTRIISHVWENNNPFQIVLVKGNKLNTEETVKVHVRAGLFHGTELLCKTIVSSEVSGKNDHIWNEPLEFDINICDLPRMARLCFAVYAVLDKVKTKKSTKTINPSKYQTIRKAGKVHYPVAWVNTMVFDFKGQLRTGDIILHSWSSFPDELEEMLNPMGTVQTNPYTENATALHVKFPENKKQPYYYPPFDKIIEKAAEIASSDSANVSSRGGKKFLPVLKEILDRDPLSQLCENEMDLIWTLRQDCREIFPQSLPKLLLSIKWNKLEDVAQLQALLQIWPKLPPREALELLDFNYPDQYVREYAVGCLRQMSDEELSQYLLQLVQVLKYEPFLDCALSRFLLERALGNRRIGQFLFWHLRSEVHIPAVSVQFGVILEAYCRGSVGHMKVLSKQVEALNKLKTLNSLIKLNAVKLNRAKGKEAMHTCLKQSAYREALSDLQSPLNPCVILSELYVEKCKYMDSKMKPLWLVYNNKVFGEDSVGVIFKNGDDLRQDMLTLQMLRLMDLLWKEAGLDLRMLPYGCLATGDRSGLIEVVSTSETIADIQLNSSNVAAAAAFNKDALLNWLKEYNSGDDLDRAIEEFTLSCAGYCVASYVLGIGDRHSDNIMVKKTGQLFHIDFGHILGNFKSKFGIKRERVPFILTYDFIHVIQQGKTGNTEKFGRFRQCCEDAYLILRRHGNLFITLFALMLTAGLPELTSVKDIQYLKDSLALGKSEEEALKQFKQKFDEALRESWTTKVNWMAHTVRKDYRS

Take `C/C(=N\N(C)S(=O)(=O)c1cc([N+](=O)[O-])ccc1N(C)CCCN1CCOCC1)c1cnn2ccc(C#N)cc12`: the IC50 was greater than 1000 nM in experiment [1], 3300 nM in experiment [2] and 2400 nM in experiment [3].
Consider `CN(/N=C/c1cnn2ccc(C#N)cc12)S(=O)(=O)c1cc([N+](=O)[O-])ccc1NCCN1CCOCC1`, for which the IC50 is 9 nM in experiment [1]; 9400 nM in experiment [2]; 27 nM in experiment [4]; greater than 20000 nM in experiment [3]; greater than 1000 nM on PI3K p110 beta/p85 alpha.
With `CN(C)CCN(C)c1ccc([N+](=O)[O-])cc1S(=O)(=O)N(C)/N=C/c1cnn2ccc(Br)cc12`, the IC50 in experiment [1] was 510 nM; in experiment [2] it was less than 2 nM; in experiment [3], less than 2 nM.
Take `CN(CCc1cccnc1)c1ccc([N+](=O)[O-])cc1S(=O)(=O)N(C)/N=C/c1cnn2ccc(C#N)cc12`: the half-maximal inhibitory concentration (IC50) in experiment [1] is 9 nM; in experiment [2], less than 2 nM; in experiment [4], 55 nM; in experiment [3], 740 nM; on PI3K p110 beta/p85 alpha, 180 nM.
Take `CN(/N=C/c1cnn2ccc(C#N)cc12)S(=O)(=O)c1cc([N+](=O)[O-])ccc1OCc1ccccn1`: the IC50 in experiment [1] worked out at 6 nM; in experiment [2], 1300 nM; in experiment [4], 950 nM; in experiment [3], 660 nM; on PI3K p110 beta/p85 alpha it was 5600 nM.
For `C/C(=N\NS(=O)(=O)c1cc([N+](=O)[O-])ccc1N(C)Cc1ccccn1)c1cnn2ccc(C#N)cc12` the same measures were 4.8 nM, 97 nM, 11 nM, 3200 nM and 207 nM.
On to `CN(CCCN1CCOCC1)c1ccc([N+](=O)[O-])cc1S(=O)(=O)N(C)/N=C/c1cnn2ccc(Br)cc12`, for which the concentration for half-maximal inhibition (IC50) in experiment [1] turned out to be 370 nM; in experiment [2], 94 nM; in experiment [3], 670 nM.
As to `CN(/N=C/c1cnn2ccc(C#N)cc12)S(=O)(=O)c1cc([N+](=O)[O-])ccc1NCc1ccccn1`, the IC50 is 25 nM in experiment [1]; 1100 nM in experiment [2]; 350 nM in experiment [4]; 680 nM in experiment [3]; greater than 1000 nM at PI3K p110 beta/p85 alpha.
In the case of `CN(CCN1CCOCC1)c1ccc([N+](=O)[O-])cc1S(=O)(=O)N(C)/N=C/c1cnn2ccc(C#N)cc12`, the IC50 came out at 19 nM in experiment [1]; 260 nM in experiment [2]; 74 nM in experiment [4]; 210 nM in experiment [3]; 1000 nM on PI3K p110 beta/p85 alpha.
For `C/C(=N\N(C)S(=O)(=O)c1cc([N+](=O)[O-])ccc1N(C)CCN(C)C)c1cnn2ccc(C#N)cc12` the same measures were 328 nM, 1800 nM, 658 nM, 860 nM and greater than 1000 nM.
Regarding `CN(C)CCNc1ccc([N+](=O)[O-])cc1S(=O)(=O)N(C)/N=C/c1cnn2ccc(C#N)cc12`, the IC50 in experiment [1] was 430 nM; in experiment [2], 750 nM; in experiment [4], greater than 1000 nM; in experiment [3], 640 nM; on PI3K p110 beta/p85 alpha, greater than 1000 nM.
For `CN(CCN1CCCCC1)c1ccc([N+](=O)[O-])cc1S(=O)(=O)N(C)/N=C/c1cnn2ccc(C#N)cc12`, the IC50 in experiment [1] was 79 nM; in experiment [2], 92 nM; in experiment [4], 450 nM; in experiment [3], 49 nM; on PI3K p110 beta/p85 alpha, 4200 nM.
Consider `CCN(CC)CCN(C)c1ccc([N+](=O)[O-])cc1S(=O)(=O)N(C)/N=C/c1cnn2ccc(C#N)cc12`, for which the IC50 is 75 nM in experiment [1]; 500 nM in experiment [2]; 66 nM in experiment [4]; 340 nM in experiment [3]; 330 nM at PI3K p110 beta/p85 alpha.
As to `CN(C)CCN(C)c1ccc([N+](=O)[O-])cc1S(=O)(=O)N(C)/N=C/c1cnn2ccc(C#N)cc12`, the IC50 in experiment [1] worked out at 46 nM; in experiment [2] it was 49 nM; in experiment [4], 230 nM; in experiment [3] it was 55 nM; at PI3K p110 beta/p85 alpha, 670 nM.
For `CNCCN(C)c1ccc([N+](=O)[O-])cc1S(=O)(=O)N(C)/N=C/c1cnn2ccc(C#N)cc12`, the IC50 in experiment [1] stood at 65 nM; in experiment [2] it was 24 nM; in experiment [4], 280 nM; in experiment [3], 11 nM; on PI3K p110 beta/p85 alpha, 1000 nM.
Take `C/C(=N\N(C)S(=O)(=O)c1cc([N+](=O)[O-])ccc1N(C)CCN(C)C)c1cnn2ccc(Br)cc12`: the IC50 in experiment [1] is greater than 1000 nM; in experiment [2], 3500 nM; in experiment [4], greater than 1000 nM; in experiment [3] it was 930 nM.
On to `CN(/N=C/c1cnn2ccc(C#N)cc12)S(=O)(=O)c1cc(C#N)ccc1OCCN1CCOCC1`, for which the IC50 is 360 nM in experiment [1]; 400 nM in experiment [2]; 680 nM in experiment [4]; 390 nM in experiment [3]; greater than 1000 nM at PI3K p110 beta/p85 alpha.
For `C/C(=N\NS(=O)(=O)c1cc([N+](=O)[O-])ccc1N(C)CCCN1CCOCC1)c1cnn2ccc(Br)cc12`, the IC50 in experiment [1] amounted to 448 nM; in experiment [2] it was 900 nM; in experiment [3] it was 3200 nM.
Turning to `Cc1ccc([N+](=O)[O-])cc1S(=O)(=O)N(CCO)/N=C/c1cnn2ccc(C#N)cc12`, the IC50 in experiment [1] amounted to 1.3 nM; in experiment [3] it was 140 nM.
With `CN(Cc1cccnc1)c1ccc([N+](=O)[O-])cc1S(=O)(=O)N(C)/N=C/c1cnn2ccc(C#N)cc12`, the IC50 in experiment [1] was found to be 5.8 nM; in experiment [2], 540 nM; in experiment [4], 160 nM; in experiment [3] it was 630 nM; on PI3K p110 beta/p85 alpha it was 530 nM.
On to `C/C(=N\NS(=O)(=O)c1cc([N+](=O)[O-])ccc1N(C)CCN(C)C)c1cnn2ccc(Br)cc12`, for which the IC50 was 208 nM in experiment [1]; 420 nM in experiment [2]; greater than 1000 nM in experiment [4]; 420 nM in experiment [3]; greater than 1000 nM at PI3K p110 beta/p85 alpha.
As to `CN(Cc1ccncc1)c1ccc([N+](=O)[O-])cc1S(=O)(=O)N(C)/N=C/c1cnn2ccc(C#N)cc12`, the IC50 in experiment [1] is 15 nM; in experiment [2], 44 nM; in experiment [4], 150 nM; in experiment [3], 480 nM; on PI3K p110 beta/p85 alpha it was 390 nM.
For the compound `CN(Cc1ccccn1)c1ccc([N+](=O)[O-])cc1S(=O)(=O)N(C)/N=C/c1cnn2ccc(Br)cc12`, the IC50 in experiment [1] is 180 nM; in experiment [2], 93 nM; in experiment [3] it was 580 nM; at PI3K p110 beta/p85 alpha, greater than 1000 nM.
In the case of `CN(Cc1ccccn1)c1ccc(C#N)cc1S(=O)(=O)N(C)/N=C/c1cnn2ccc(C#N)cc12`, the IC50 in experiment [1] worked out at 40 nM; in experiment [2], 130 nM; in experiment [3], 960 nM.
The matching figures for `C/C(=N\N(C)S(=O)(=O)c1cc([N+](=O)[O-])ccc1N(C)CCCN1CCOCC1)c1cnn2ccc(Br)cc12`: greater than 1000 nM, 5100 nM and 3800 nM.
For `C/C(=N\N(C)S(=O)(=O)c1cc([N+](=O)[O-])ccc1N(C)Cc1ccccn1)c1cnn2ccc(Br)cc12` the same measures were 1040 nM, 2600 nM and 3000 nM.
In the case of `CN(C)CCN(C)c1ccc(C#N)cc1C(=O)N(C)/N=C/c1cnn2ccc(C#N)cc12`, the concentration for half-maximal inhibition (IC50) in experiment [1] amounted to 630 nM; in experiment [2], 2900 nM; in experiment [3], 6200 nM.
Consider `C/C(=N\NS(=O)(=O)c1cc([N+](=O)[O-])ccc1N(C)CCCN1CCOCC1)c1cnn2ccc(C#N)cc12`, for which the results for the IC50 in experiment [1], in experiment [2] and in experiment [3] were 333 nM, 2400 nM and 9500 nM, respectively.
